# Reference: US6380245B1, “Antibiotics TKR1912-I and TKR1912-II and process for producing the same” (Takara Shuzo Co., Ltd., priority 1995, dated 2002)
# Read-outs that look alike come from different tables or passages of the source.
# Tests used:
# [1] = system: Aspergillus fumigatus TIMM1776; assay: Antifungal spectrum, liquid medium dilution method; assay type: cell-based
# Protocol: (§1) The antifungal spectra of the above TKR1912-I and TKR1912-II against various microorganisms were determined. Using the liquid medium dilution method, the concentration causing a substantially complete inhibition of fungal growth was determined as minimal inhibitory concentration (μg/ml). Moreover, the minimal concentration (μg/ml) causing partial growth inhibition was determined and the results are presented in parentheses in Table 2. In the table, YNBG stands for YNBG medium comprising 0.67% of yeast nitrogen base (Difco) and 1.0% of glucose and BHI stands for BHI medium comprising brain-heart infusion bouillon (Nissui Pharmaceutical).
# [2] = system: Candida albicans TIMM0136; assay: Antifungal spectrum, liquid medium dilution method; assay type: cell-based
# Protocol: as §1
# [3] = system: Candida kefyr TIMM0301; assay: Antifungal spectrum, liquid medium dilution method; assay type: cell-based; conditions: for MIC: Kluyveromyces marxianus
# Protocol: as §1
# [4] = system: Cryptococcus neoformans TIMM0354; assay: Antifungal spectrum, liquid medium dilution method; assay type: cell-based
# Protocol: as §1
# [5] = system: ICR mice; assay: Toxicity after intraperitoneal administration to ICR mice; assay type: in vivo; conditions: 50 mg/kg
# [6] = Solubility in solvents; assay type: physicochemical
# [7] = Aspergillus fumigatus TIMM1776, BHI medium
# [8] = Candida albicans TIMM0136, YNBG medium
# [9] = Candida kefyr TIMM0301, YNBG medium
SMILES,"minimal concentration causing partial growth inhibition (in parentheses) [1, 7]","MIC ([1]; Aspergillus fumigatus TIMM1776, BHI medium, read-out: Minimal inhibitory concentration (substantially complete inhibition of fungal growth)) [µg/mL]","minimal concentration causing partial growth inhibition (in parentheses) [2, 8]","MIC ([2]; Candida albicans TIMM0136, YNBG medium, read-out: Minimal inhibitory concentration (substantially complete inhibition of fungal growth)) [µg/mL]","minimal concentration causing partial growth inhibition (in parentheses) [3, 9]","MIC ([3]; Candida kefyr TIMM0301, YNBG medium, read-out: Minimal inhibitory concentration (substantially complete inhibition of fungal growth)) [µg/mL]","MIC ([4]; Cryptococcus neoformans TIMM0354, YNBG medium, read-out: Minimal inhibitory concentration (substantially complete inhibition of fungal growth)) [µg/mL]",toxic signs [5],solubility in hexane [6],"solubility in methanol, chloroform, and water [6]","MIC ([1]; Aspergillus fumigatus, TIMM1776, read-out: Minimal inhibitory concentration (substantially complete inhibition of fungal growth)) [µg/mL]","MIC ([2]; Candida albicans, TIMM0136, read-out: Minimal inhibitory concentration (substantially complete inhibition of fungal growth)) [µg/mL]","MIC ([3]; TIMM0301, read-out: Minimal inhibitory concentration (substantially complete inhibition of fungal growth)) [µg/mL]","minimal concentration causing partial growth inhibition (in parentheses) ([4]; Cryptococcus neoformans TIMM0354, YNBG medium)","MIC ([4]; Cryptococcus neoformans, TIMM0354, read-out: Minimal inhibitory concentration (substantially complete inhibition of fungal growth)) [µg/mL]"
CCCCCCCCCC/C=C/C1CC(C(=O)O)C(CC(=O)O)(C(=O)OC(C(=O)O)C(CC(=O)O)C(=O)O)O1 (stereo not drawn) [TKR1912-I],(100) μg/ml,> 100,(1.56) μg/ml,3.13,(6.25) μg/ml,12.5,6.25,no toxic signs,practically insoluble,soluble,–,–,–,–,–
CCCCCCCC/C=C/CC/C=C/C1CC(C(=O)O)C(CC(=O)O)(C(=O)OC(C(=O)O)C(CC(=O)O)C(=O)O)O1 (stereo not drawn) [TKR1912-II],(25) μg/ml,–,(0.78) μg/ml,–,(1.56) μg/ml,–,–,no toxic signs,practically insoluble,soluble,> 100,3.13,3.13,(6.25) μg/ml,> 100
